Source: publication PMC3384541 (Cancer discovery, 2012)

Experiments:
HMEC-CA-p110β = experiment: BacMam-enabled LanthaScreen cellular assay; format: cell-based; details: Homo sapiens, read-out: IC50 in cell culture
[1] = test system: HCC70, MDA-MB-468, BT549 and PC3 cell lines; experiment: Western blot of AKT phosphorylation in PTEN-null cancer cell lines; format: cell-based, human
Rat1-CA-p110β tumors [2] = experiment: Xenograft tumor growth; format: in vivo, mice; details: IP 20 mg/kg once or twice daily
[3] = test system: panel of 422 cancer cell lines; experiment: High-throughput cell viability assay; format: cell-based, human; details: threshold EC50 < 5 µM, 72 h treatment
panel of 433 kinases = experiment: KinomeScan kinase selectivity profile; format: binding; details: 10 µM
HCC70 tumors = experiment: Xenograft tumor growth; format: in vivo, mice; details: PTEN-deficient; IP, 20 mg/kg, BID
Rat1-CA-p110α tumors [4] = experiment: In vivo pharmacodynamics, pAKT in tumor lysates; set-up: species or system mice; details: after single IP injection 10 mg/kg
PC3 tumors = experiment: Xenograft tumor growth; format: in vivo, mice; details: PTEN-deficient; IP, 20 mg/kg, BID
HCC1954 tumors = experiment: Xenograft tumor growth; format: in vivo, mice; details: PTEN wild-type
Rat1-CA-p110α tumors [5] = experiment: Xenograft tumor growth; format: in vivo, mice; details: IP 20 mg/kg once or twice daily
In vivo pharmacokinetics = experiment: In vivo pharmacokinetics; set-up: species or system mice
Rat1-CA-p110β tumors [6] = experiment: In vivo pharmacodynamics, pAKT in tumor lysates; set-up: species or system mice; details: 1 hour after single IP injection 10 mg/kg
[7] = test system: HMEC-CA-p110α, HMEC-CA-p110β, HMEC-CA-p110δ; format: cell-based, human; details: isogenic HMEC-CA-p110 lines, serum-free, western blot
[8] = single IP injection 10 mg/kg, tumor-bearing mice

Q: What does the source list for Cc1cc([C@@H](C)Nc2ccccc2C(=O)O)c2nc(N3CCOCC3)cc(=O)n2c1 [KIN-193, (−)2-[1-(7-Me-2-(morpholin-4-yl)-4-oxo-4H-pyrido[1,2-a]pyrimidin-9-yl)ethylamino]benzoic acid]?
A: IC50 (HMEC-CA-p110β): 100 to 500 nM; effect on AKT phosphorylation [1]: significantly inhibited AKT phosphorylation; tumor growth (Rat1-CA-p110β tumors [2]): significantly impaired; cell lines with PTEN mutations sensitive to compound ([3]; 20 out of 57 lines): 35%; cell lines with wild-type PTEN sensitive to compound ([3]; 58 out of 365 lines): 16%; inhibitor-kinase interaction profile (panel of 433 kinases): highly selective in its interaction with PI3Ks; tumor growth (HCC70 tumors): significantly inhibited tumor growth; phosphorylation of AKT in tumor lysates (Rat1-CA-p110α tumors [4]): remained unchanged; tumor growth (PC3 tumors): significantly inhibited tumor growth; tumor growth (HCC1954 tumors; IP, 20 mg/kg, BID): failed to block the growth; tumor growth (Rat1-CA-p110α tumors [5]): little effect; IC50 (In vivo pharmacokinetics; Mus musculus, read-out: IC50 / level reached in vivo): ≤ 1000 nM; optimal route for robust in vivo exposure (In vivo pharmacokinetics; mice): intraperitoneal (IP) delivery to be the optimal route; concentrations in CA-p110α- and CA-p110β-driven tumors (In vivo pharmacokinetics; single IP injection 10 mg/kg): paralleled the plasma concentrations; time by which plasma concentration declined to undetectable levels (In vivo pharmacokinetics; [8]): ≤ 4 h; time of highest plasma concentration (In vivo pharmacokinetics; [8]): 1 h; phosphorylation of AKT in tumor lysates (Rat1-CA-p110β tumors [6]): significantly reduced

Q: With Cc1ccccc1-n1c(Cn2cnc3c(N)ncnc32)nc2cccc(C)c2c1=O [IC87114] as the compound, how does the “effect on AKT phosphorylation” value [1] read?
A: had much less effect

Q: And the “inhibition of phosphorylation of AKT at Thr308 and Ser473” value (from here on “inhibition of phosphorylation of AKT”) [7]?
A: in a dose-dependent manner

Q: Which tumor growth (HCC1954 tumors; PO, 150 mg/kg, QD) does the source give for CS(=O)(=O)N1CCN(Cc2cc3nc(-c4cccc5[nH]ncc45)nc(N4CCOCC4)c3s2)CC1 [GDC-0941, reference compound] here?
A: responded to treatment

Q: Which “inhibition of phosphorylation of AKT” value [7] does the source give for Cc1cc(C(C)Nc2ccccc2)c2nc(N3CCOCC3)cc(=O)n2c1 (centres unmarked) [TGX-221] here?
A: in a dose-dependent manner

Q: For Cc1ccc([N+](=O)[O-])cc1S(=O)(=O)N(C)/N=C/c1cnc2ccc(Br)cn12 [PIK-75], which “effect on AKT phosphorylation” value [1] is on record?
A: had much less effect

Q: What about the “inhibition of phosphorylation of AKT” value [7] of the same compound?
A: in a dose-dependent manner
